Test results: US11220503B2, “Phthalazine derivatives, preparation method, pharmaceutical composition and usage thereof” (Shanghai SIMR Biotech Co., Ltd., priority 2015, dated 2022)

Molecular target: T1, α5β3γ2 receptor (Homo sapiens, UniProt P18507+P31644)
T1 construct: expressed in transfected cells; host or cells: HEK-293 (stably transfected)
Test: Supplementary data for cell level screening: new electrophysiology method (I. Lecker et al)
Type: cell-based
Settings: for Inverse agonism efficacy(%): new method, CsCl intracellular solution, GABA 0.1˜0.3 CM, other procedures as previous method; for inverse agonism efficacy of the compound/α5IA inverse agonism efficacy: ratio to the α5IA reference run above in the table (r4 or r29)
Procedure: The inventors used electrophysiological methods to assay the inverse agonist efficacy of the substance to be tested. The detailed procedures are as follows: (1) Different subunits of GABAA receptors were expressed in human embryonic kidney cells 293 (HEK293). The cells were cultured in a culture medium and used as a cell model for screening potential analgesics. The α, β and γ subunits are necessary to form complete functional GABAA receptors. In this example, the inventor has established the following cell model: (a) α5 subunit (protein sequence is GenBank accession number: NP_001158509), β3 subunit (protein sequence is GenBank accession number: NP_068712) and γ2 subunit (protein sequence is GenBank accession number: NP_944494) were expressed in HEK-293 cell lines at the same time, which formed the complete functional GABAA receptors. (2) Cells were stably transfected HEK-293 cells expressing α5β3γ2 receptor, which were labeled by green fluorescent protein (GFP). Cells were grown in 10 cm dishes. The cells were passaged after reaching 80-90% confluence. During passaging, the culture medium was removed and discarded, 3 mL DMEM medium (Gibco™) was added to the dishes, the dishes were shaken slightly, and DMEM was removed and discarded. 3 mL Trypsin (Trypsin-EDTA 0.05%, Gibco™) was added and cells were digested at 37° C. for 3 minutes. Then 3 mL complete growth medium (DMEM+10% horse serum (Gibco™)) was added and the cells at the bottom of the culture dishes were dispersed. The cell suspension were transferred to a 15 mL centrifugal tube (Corning®) and then centrifuged at 200 g for 3 minutes. The supernatant was discarded, 4 mL complete growth medium was added, and the cells were resuspended by gently blowing. The cell suspension was diluted by 1:5 or 1:10 for subculturing. The cell suspension was diluted by 1:12 for electrophysiology experiment, which are added to the 24 well plate (Corning®) which has a glass slide pre-treated with poly-D-lysine. The cells were adhered to the slide before the experiment was conducted. The cells were maintained in culture for no more than 24 hours before use. (3) Compound concentration: for screening, all compounds were diluted to a final concentration of 100 nM. […] The compounds were at the concentration of 1 nM, 10 nM, 50 nM, 100 nM and 1000 nM in dose-inverse agonism efficacy (%) experiment. The whole cell patch clamp technique was used in electrophysiology experiments. The extracellular solution (ECS) contained: 150 mM NaCl, 5 mM KCl, 2.5 mM CaCl2, 1 mM MgCl2, 10 mM HEPES and 10 mM glucose (pH 7.4); […], 5 mM EGTA, 10 mM HEPES ([…] water). The currents were recorded by an EPC-10 amplifier and the PatchMaster software (HEKA). Patch electrodes with a resistance of 5-6 MΩ were pulled from borosilicate glass (Sutter). The diluted compounds were perfused by OCTAFLOWII system. GFP positive and independently growing cells were selected for recording. During recording, the membrane voltage was clamped at −60 mV. During experiment, the cells were firstly perfused with ECS for 20 seconds. When the baseline reached to a stable state, cells were then perfused with GABA solution. Then the current induced by GABA can be detected. After about 20-40 seconds, the current was stable. ECS was switched to compounds solution and the effects of the compounds were detected. At last, the perfusion solution was switched to ECS. The experiment was finished when the post-baseline returned to the pre-baseline before compounds perfusion. Only the data whose pre-baseline and post-baseline are at almost the same level were used for analysis. […] Then, compounds were diluted at the desired concentration in GABA ECS. (4) Currents were analyzed with the PatchMaster (HEKA) software. The GABA currents before (Ipre) and after (Ipost) compounds perfusion were recorded respectively. The efficacies of compounds were calculated by the following equation: inverse agonism efficacy=(Ipost-Ipre)*100/Ipre. N indicates experiment numbers. […]

T1 sequence (P31644 32-462): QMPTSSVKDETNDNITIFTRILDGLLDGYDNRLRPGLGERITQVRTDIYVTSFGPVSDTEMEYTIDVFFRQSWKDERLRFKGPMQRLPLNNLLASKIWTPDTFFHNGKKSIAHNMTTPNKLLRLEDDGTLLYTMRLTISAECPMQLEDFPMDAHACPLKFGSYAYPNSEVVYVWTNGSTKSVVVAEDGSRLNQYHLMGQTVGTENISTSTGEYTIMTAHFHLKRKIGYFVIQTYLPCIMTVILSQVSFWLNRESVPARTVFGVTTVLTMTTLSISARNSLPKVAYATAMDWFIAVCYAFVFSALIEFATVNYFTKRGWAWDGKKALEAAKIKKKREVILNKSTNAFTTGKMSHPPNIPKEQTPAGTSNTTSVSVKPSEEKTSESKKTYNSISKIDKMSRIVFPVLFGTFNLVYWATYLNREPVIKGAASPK
T1 sequence (P28472 26-473 isoform P28472-2 partner limits assumed): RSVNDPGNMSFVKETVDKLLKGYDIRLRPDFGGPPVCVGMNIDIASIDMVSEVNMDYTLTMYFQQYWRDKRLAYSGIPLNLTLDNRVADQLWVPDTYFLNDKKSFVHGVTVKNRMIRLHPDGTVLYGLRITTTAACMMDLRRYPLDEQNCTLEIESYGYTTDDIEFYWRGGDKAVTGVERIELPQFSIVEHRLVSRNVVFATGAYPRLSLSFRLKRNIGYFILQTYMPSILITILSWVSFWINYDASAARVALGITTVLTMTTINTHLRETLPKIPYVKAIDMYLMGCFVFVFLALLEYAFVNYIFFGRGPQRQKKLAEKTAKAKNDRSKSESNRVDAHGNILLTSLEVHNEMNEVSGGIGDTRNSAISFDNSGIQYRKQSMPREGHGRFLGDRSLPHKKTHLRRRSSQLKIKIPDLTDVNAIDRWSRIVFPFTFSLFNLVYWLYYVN
T1 sequence (P18507 40-475): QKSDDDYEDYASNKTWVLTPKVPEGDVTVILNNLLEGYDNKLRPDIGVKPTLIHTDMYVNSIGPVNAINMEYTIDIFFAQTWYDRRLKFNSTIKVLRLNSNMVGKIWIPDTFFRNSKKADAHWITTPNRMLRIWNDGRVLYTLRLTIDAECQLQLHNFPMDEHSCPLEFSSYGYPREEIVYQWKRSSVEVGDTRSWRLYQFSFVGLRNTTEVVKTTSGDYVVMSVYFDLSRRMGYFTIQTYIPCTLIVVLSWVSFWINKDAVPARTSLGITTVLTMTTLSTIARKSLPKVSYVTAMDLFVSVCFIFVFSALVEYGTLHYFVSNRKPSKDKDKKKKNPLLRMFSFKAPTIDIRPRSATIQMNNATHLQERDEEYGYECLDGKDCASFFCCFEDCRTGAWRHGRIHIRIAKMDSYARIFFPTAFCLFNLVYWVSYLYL

| Inverse agonism efficacy(%) | inverse agonism efficacy of the compound/α5IA inverse agonism efficacy | SMILES |
| --- | --- | --- |
| −26.5 | 1.526 | Cc1cc(-c2nnc3c4ccccc4c(OCc4ccc(C(=O)NC5CC5)cn4)nn23)no1 [Compound 04, N-cyclopropyl-6-(((3-(5-methylisoxazol-3-yl)-[1,2,4]triazolo[3,4-a]phthalazin-6-yl)oxy)methyl) nicotinamide] |
| −17.71 | 1.020 | Cc1cc(-c2nnc3c4ccccc4c(OCc4ccc(C(=O)NC5CCN(C)CC5)cn4)nn23)no1 [Compound 11, 6-(((3-(5-methylisoxazol-3-yl)-[1,2,4]triazolo[3,4-a]phthalazin-6-yl)oxy)methyl)-N-(1-methylpiperidin-4-yl)nicotinamide] |
| −19.0625 | 1.098 | Cc1cc(-c2nnc3c4ccccc4c(OCc4ccc(C(=O)NCCN5CCOCC5)cn4)nn23)no1 [Compound 12, 6-(((3-(5-methylisoxazol-3-yl)-[1,2,4]triazolo[3,4-a]phthalazin-6-yl)oxy)methyl)-N-(2-morpholinoethyl)nicotinamide] |
| −33 | 1.774 | COC1CCN(C(=O)c2ccc(COc3nn4c(-c5cc(C)on5)nnc4c4ccccc34)nc2)CC1 [Compound 22, (4-methoxypiperidin-1-yl)(6-(((3-(5-methylisoxazol-3-yl)-[1,2,4]triazolo[3,4-a]phthalazin-6-yl)oxy)methyl)pyridin-3-yl)methanone] |
| −21.5 | 1.238 | Cc1cc(-c2nnc3c4ccccc4c(OCc4ccc(C(=O)NCC5CCCO5)cn4)nn23)no1 (stereo not shown) [Compound 26, 6-(((3-(5-methylisoxazol-3-yl)-[1,2,4]triazolo[3,4-a]phthalazin-6-yl)oxy)methyl)-N-((tetrahydrofuran-2-yl)methyl)nicotinamide] |
| −32.1 | 1.726 | Cc1cc(-c2nnc3c4ccccc4c(OCc4ccc(C(=O)NCCS(C)(=O)=O)cn4)nn23)no1 [Compound 27, 6-(((3-(5-methylisoxazol-3-yl)-[1,2,4]triazolo[3,4-a]phthalazin-6-yl)oxy)methyl)-N-(2-(methylsulfonyl)ethyl)nicotinamide] |
| −19.86 | 1.143 | Cc1cc(-c2nnc3c4ccccc4c(OCc4ccc(C(N)=O)cn4)nn23)no1 [Compound 28, 6-(((3-(5-methylisoxazol-3-yl)-[1,2,4]triazolo[3,4-a]phthalazin-6-yl)oxy)methyl)nicotinamide] |
| −52 | 2.796 | Cc1cc(-c2nnc3c4ccccc4c(OCc4ccc(C(=O)NCC(F)(F)F)cn4)nn23)no1 [Compound 30, 6-(((3-(5-methylisoxazol-3-yl)-[1,2,4]triazolo[3,4-a]phthalazin-6-yl)oxy)methyl)-N-(2,2,2-trifluoroethyl)nicotinamide] |
| −28.8 | 1.658 | O=C(NC1CC1)c1ccc(COc2nn3c(-c4cc(CO)on4)nnc3c3ccccc23)nc1 [Compound 36, N-cyclopropyl-6-(((3-(5-(hydroxymethyl)isoxazol-3-yl)-[1,2,4]triazolo[3,4-a]phthalazin-6-yl)oxy)methyl)nicotinamide] |
| −32.5 | 1.871 | O=C(NCC(F)(F)F)c1ccc(COc2nn3c(-c4cc(CO)on4)nnc3c3ccccc23)nc1 [Compound 42, 6-(((3-(5-(hydroxymethyl)isoxazol-3-yl)-[1,2,4]triazolo[3,4-a]phthalazin-6-yl)oxy)methyl)-N-(2,2,2-trifluoroethyl)nicotinamide] |
| −20.8 | 1.196 | O=C(NC1CCOCC1)c1ccc(COc2nn3c(-c4cc(CO)on4)nnc3c3ccccc23)nc1 [Compound 44, 6-(((3-(5-(hydroxymethyl)isoxazol-3-yl)-[1,2,4]triazolo[3,4-a]phthalazin-6-yl)oxy)methyl)-N-(tetrahydro-2H-pyran-4-yl)nicotinamide] |
| −22.2 | 1.278 | O=C(c1ccc(COc2nn3c(-c4cc(CO)on4)nnc3c3ccccc23)nc1)N1CCC1 [Compound 49, azetidin-1-yl-(6-(((3-(5-(hydroxymethyl)isoxazol-3-yl)-[1,2,4]triazolo[3,4-a]phthalazin-6-yl)oxy)methyl)pyridin-3-yl)methanone] |
| −22.8 | 1.313 | CS(=O)(=O)NNC(=O)c1ccc(COc2nn3c(-c4cc(CO)on4)nnc3c3ccccc23)nc1 [Compound 53, N′-(6-(((3-(5-(hydroxymethyl)isoxazol-3-yl)-[1,2,4]triazolo[3,4-a]phthalazin-6-yl)oxy)methyl)nicotinoyl)methanesulfonohydrazide] |
| −27.6 | 1.589 | N#Cc1cc(C(=O)N[C@H]2CCC[C@@H]2O)ccc1COc1nn2c(-c3cc(CO)on3)nnc2c2ccccc12 [Compound 56, 3-cyano-N-((1S,2S)-2-hydroxycyclopentyl)-4-(((3-(5-(hydroxymethyl)isoxazol-3-yl)-[1,2,4]triazolo[3,4-a]phthalazin-6-yl)oxy)methyl)benzamide] |
